Data taken from patent publication US20250352518A1, “A BENZIMIDAZOLE COMPOUND WITH ANTIHELMINTHIC ACTIVITY FOR USE IN REVERSING, ARRESTING OR SLOWING DOWN CELLULAR AGEING IN A VERTEBRATE SUBJECT” (RAVAN BIO LIMITED, priority 2022, published 2025).

What was measured:
[1] = system: post-confluent NHEK cells; experiment: Growth of re-cultured post-confluent (cell-cell contact growth arrested) NHEK's; type: cell-based, human; conditions: for continued growth of post-confluent NHEK's (phase contrast): passage 4, 24 hours with compound, 10 μM Y27632, 500-1250 nM Tadalafil, 50-200 nM Fenbendazole; for concentration causing optimal cell growth: post-confluent NHEK
Text: Neonatal human epidermal foreskin keratinocytes (NHEKs) were used to test the ability of compounds to reverse, arrest or slow down cellular ageing. These cells typically undergo approximately 35 cell divisions before the Hayflick limit is reached but they can be induced to undergo premature senescence and, what has been understood to be, irreversible growth arrest earlier than this by induction of cell-cell contact growth inhibition when cultured at high cell density/to confluence (Poumay & Pittelkow 1995 J Inv Dermatol 104, p 271-276). The inventors were thus inspired to culture post-confluent cells and assess the effect of test compounds on the growth, telomere loss and secretion of inflammatory factors by such cells. An experimental schematic is provided as FIG. 1. 1.1 Culture of Early Passage NHEK's in the Presence and Absence of y27632 Pooled donor neonatal NHEK's (Cat No C-12005, Lot No 456Z001.1, PromoCell GmBH), serum-free PromoCell Keratinocyte Growth Medium 2 (KSFM, Cat No C20011. Lot No 472M197), CaCl2) (Lot No 471055) and Supplements (Lot No 472M013) were all obtained from PromoCell GmBH. NHEK's were thawed directly into a single T75 in 20 mls of complete KSFM (CaCl2 & Supplements), incubated over night at 37° C., 5% CO2 and the medium changed the following day. After 3 days the cells were 80% confluent and were passaged (Ist) using 0.05% Trypsin+EDTA (Gibco) into ×2 T75 flasks at a split ratio of 1:4. After overnight incubation at 37° C., 5% CO2, the cultures were at 30% confluence and 10 μM Y27632 (Cat No 688000, Lot No 2884132, Merck) was added to one of the flasks. […] Fresh T75 flasks were seeded with 5.0×10^5 cells from each in their respective medium. […] Fresh T75 flasks were seeded, as described previously, and also 1.2×10^4 NHEK cells/well were seeded into 24 well plates, incubated overnight to allow cell attachment, and the following subsequently added to separate wells: • A. NHEK in complete KSFM • B. NHEK+Y27632 in complete KSFM • C. Y27632 treated NHEK transferred to complete KSFM (Y27632 Removed) • D. NHEK transferred to complete KSFM+500 nM Tadalafil • E. NHEK transferred to complete KSFM+750 nM Tadalafil • F. NHEK transferred to complete KSFM+1000 nM Tadalafil • G. NHEK transferred to complete KSFM+1250 nM Tadalafil • H. NHEK transferred to complete KSFM+50 nM Fenbendazole • I. NHEK transferred to complete KSFM+100 nM Fenbendazole • J. NHEK transferred to complete KSFM+150 nM Fenbendazole • K. NHEK transferred to complete KSFM+200 nM Fenbendazole All drugs were added 24 hours after seeding. […] FIG. 2B is an example of the appearance of post-confluent cells.
Post-confluent NHEK's (FIG. 2B) were subsequently passaged (4th) into a fresh 24 well plate using a split ratio of 1 in 4 in 2 mls of fresh complete KSFM. These were left overnight to attach and the same compounds added (as shown in A-K of 1.1) followed by incubation for a further 24 hours and subsequently photographed.

[2] = system: Interleukin 6 (IL-6); experiment: IL-6 secretion by NHEK's (Human IL-6 SimpleStep ELISA); type: cell-based; conditions: post-confluent NHEKs, 4 days post-confluence, FIG. 9b; Tadalafil at 500 nM
Protocol: Aliquots of 60,000 NHEK cells were seeded into separate T25 flasks in complete KSFM and incubated at 5% CO2, 37° C. for 3 days until they reached 20% confluence. Fenbendazole and Tadalafil were then added to each of these as either single agents, or in combination, and the cells incubated for a further 3 days at 5% CO2, 37° C. until the cells reached >50% confluence. A sample of medium was then taken for analysis of IL-6 levels using a Human IL-6 SimpleStep ELISA Kit (AbCam Cat No ab178013) according to the manufacturer's instructions (FIG. 9a). Both medium and drugs were replaced, the cells incubated for a further 3 days until confluent, medium and drugs were changed and the incubation continued for 4 days post-confluence when final medium samples were taken for analysis of IL6 levels (FIG. 9b). Each data point was repeated in triplicate and OD 490 nm readings were determined with a Dynex MRX Plate reader.

[3] = system: post-confluent NHEK cells; experiment: Growth of re-cultured post-confluent (cell-cell contact growth arrested) NHEK's; type: cell-based, human
[4] = system: neonatal human epidermal foreskin keratinocytes (NHEKs); experiment: Culture of early passage NHEK's in the presence and absence of Y27632 (live cell counts); type: cell-based
Text: Neonatal human epidermal foreskin keratinocytes (NHEKs) were used to test the ability of compounds to reverse, arrest or slow down cellular ageing. These cells typically undergo approximately 35 cell divisions before the Hayflick limit is reached but they can be induced to undergo premature senescence and, what has been understood to be, irreversible growth arrest earlier than this by induction of cell-cell contact growth inhibition when cultured at high cell density/to confluence (Poumay & Pittelkow 1995 J Inv Dermatol 104, p 271-276). The inventors were thus inspired to culture post-confluent cells and assess the effect of test compounds on the growth, telomere loss and secretion of inflammatory factors by such cells. […] Lot No 472M197), CaCl2) (Lot No 471055) and Supplements (Lot No 472M013) were all obtained from PromoCell GmBH. NHEK's were thawed directly into a single T75 in 20 mls of complete KSFM (CaCl2 & Supplements), incubated over night at 37° C., 5% CO2 and the medium changed the following day. […] After a further 48 hours both flasks were 60% confluent and phase contrast images were recorded (Zeiss […]). […] The inventors assessed that these cells had stopped growing due to cell-cell contact inhibition and had become post-confluent as defined herein. […]

[5] = system: 14th passage NHEK cells; experiment: Toxic effects on late-passage (passage 14) NHEK's; type: cell-based, human; conditions: 6 days, 10 μM Y27632 or 500 nM Tadalafil+100 nM Fenbendazole
Text: NHEK's were maintained in complete KSFM for 55 days with serial passage routinely carried out at 80% confluence in T75 flasks, as previously described in 1.1. These cells were not grown to be post-confluent and the cells were therefore not used to assess the ability of test compounds to reverse, arrest or slow down cellular ageing. Instead, the cells were used to assess whether or not Y27632, fenbendazole or tadalafil has any toxic effects. After the 55 days, a total of 50,000 cells/well of 14th passage NHEK cells were seeded into 6 well plates and, after 24 hours, Y27632, and a mixture of Tadalafil and Fenbendazole were added.

Row | SMILES | continued growth of post-confluent NHEK's (phase contrast) ([1]; FIG. 3) | concentration causing optimal cell growth ([1]; cultured for a further 24 hrs, FIG. 4) | concentration causing optimal cell growth ([1]; passage 4, 24 hours, FIG. 3) [nM] | secretion of IL-6 compared to DMSO control [2] | number of viable cells (Via-1 Assay) following withdrawal of drug ([3]; treatment P3-P5 only, withdrawn following passage 6, 5 days, FIG. 5) | number of viable cells (Via-1 Assay) ([3]; treatment continued for passages P3-P6, 5 days after passage 6, FIG. 5) | total live cell counts ([4]; KSFM+10 μM Y27632, 2nd passage at 80% confluence) | cell counts ([4]; KSFM+10 μM Y27632, 3rd passage, 72 hours after seeding 5.0×10^5 cells) | proliferation and cell death of late passage cells [5]
1 | CN1CC(=O)N2[C@H](c3ccc4c(c3)OCO4)c3[nH]c4ccccc4c3C[C@@H]2C1=O [Tadalafil, pyrazino[1′,2′: 1,6]pyrido[3,4-b]indole-1,4-dione, 6-(1,3-benzodioxol-5-yl)-2,3,6,7,12,12a-hexahydro-2-methyl-, (6R,12aR)] | all exhibited cell growth | about 1000 nM | 750 to 1000 | least effective | 1.3×10^4 cells/ml | 4.3×10^4 cells/ml | – | – | –
2 | C[C@@H](N)[C@H]1CC[C@H](C(=O)Nc2ccncc2)CC1 [Y27632] | no, or minimal cell rejuvenation | – | – | – | – | – | 5.2×10^5 cells/ml | 5.3×10^5 cells/ml | no proliferation and extensive cell death
